# According to US5114920A, “BU-3292T antibiotics” (priority 1988, dated 1992):
# Starred links: 1 amine or outer side, 2 acyl side, 3 side chain; linkers in the order of their positions; H or OH if unused. Positions of bridges follow the written chain, without caps; N, C: chain ends. Non-standard residues stand in square brackets, D forms with d. Residues, ends and D or L forms follow the SMILES beside them. Chains are numbered I, II in the order given. Actinocin(9to1) = Cc1c2oc3c(C)ccc(C(=O)[*:1])c3nc-2c(C(=O)[*:2])c(N)c1=O; NMeV = CN[C@H](C(=O)O)C(C)C; Sar = CNCC(=O)O
# Columns and labels:
# [1] = test system: Candida albicans IAM 4888; experiment: Antimicrobial activity, serial two-fold agar dilution method; format: cell-based; conditions: Sabouraud dextrose agar
# Procedure: (§1) The antimicrobial activity of BU-3292T A and B was determined against aerobic and anaerobic bacteria and fungi by a serial two-fold agar dilution method. BU-3292T A and B are active against aerobic gram-positive bacteria, and weakly active against anaerobic gram-negative bacteria and fungi.
# [2] = test system: Streptococcus pyogenes A20201; experiment: as above; format: cell-based; conditions: Nutrient agar
# Procedure: as §1
# [3] = test system: Bacteroides fragilis A22693; experiment: as above; format: cell-based; conditions: GAM agar
# Procedure: as §1
# [4] = test system: Aspergillus fumigatus IAM 2530; experiment: as above; format: cell-based; conditions: Sabouraud dextrose agar
# Procedure: as §1
# [5] = test system: Clostridium difficile A21675; experiment: as above; format: cell-based; conditions: GAM agar
# Procedure: as §1
# [6] = test system: Klebsiella pneumoniae D11; experiment: as above; format: cell-based; conditions: Nutrient agar
# Procedure: as §1
# [7] = test system: Trichophyton mentagrophytes D155; experiment: as above; format: cell-based; conditions: Sabouraud dextrose agar
# Procedure: as §1
# [8] = test system: Staphylococcus epidermidis D153; experiment: as above; format: cell-based; conditions: Nutrient agar
# Procedure: as §1
# Proteus vulgalis A9436 = experiment: as above; format: cell-based; conditions: Nutrient agar
# Procedure: as §1
# [9] = test system: Propionibacterium acnes A21933; experiment: as above; format: cell-based; conditions: GAM agar
# Procedure: as §1
# Mucor spinosus IFO 5317 = experiment: as above; format: cell-based
# Procedure: as §1
# [10] = test system: Streptococcus faecalis A9612; experiment: as above; format: cell-based; conditions: Nutrient agar
# Procedure: as §1
# [11] = test system: Staphylococcus aureus smith; experiment: as above; format: cell-based; conditions: Nutrient agar
# Procedure: as §1
# Micrococcus luteus 1001 = experiment: as above; format: cell-based; conditions: Nutrient agar
# Procedure: as §1
# [12] = test system: Staphylococcus aureus 209P; experiment: as above; format: cell-based; conditions: Nutrient agar
# Procedure: as §1
# [13] = test system: Fusarium moniliforme A2284; experiment: as above; format: cell-based; conditions: Sabouraud dextrose agar
# Procedure: as §1
# [14] = test system: Bacillus subtilis PCI-219; experiment: as above; format: cell-based; conditions: Nutrient agar
# Procedure: as §1
# [15] = test system: Cryptococcus neoformans IAM 4519; experiment: as above; format: cell-based; conditions: Sabouraud dextrose agar
# Procedure: as §1
# [16] = test system: Pseudomonas aeruginosa A9930; experiment: as above; format: cell-based; conditions: Nutrient agar
# Procedure: as §1
# [17] = test system: Propionibacterium anaerobius A21905; experiment: as above; format: cell-based; conditions: GAM agar
# Procedure: as §1
# Proteus mirabilis A9554 = experiment: as above; format: cell-based; conditions: Nutrient agar
# Procedure: as §1
# Escherichia coli NIHJ = experiment: as above; format: cell-based; conditions: Nutrient agar
# Procedure: as §1
# [18] = test system: lymphocytic leukemia P388; experiment: Antitumor activity against P388 leukemia (ip); format: in vivo, mice; conditions: QD × 3, ip
# Procedure: (§2) BU-3292T components A and B were tested for in vitro cytotoxicity against murine and human tumor cells and for in vivo antitumor activity in mice. Actinomycin D was used as a reference compound in both in vitro and in vivo experiments. B16-F10 (murine melanoma) and Moser (human colorectal carcinoma) cells were grown to the logarithmic phase in enriched Eagle minimum essential medium (MEM) supplemented with fetal calf serum (FCS, 10%) and kanamycin (60 mcg/ml), harvested and inoculated into wells of a 96-well microtiter plate with test materials at the concentrations of 3.0×10^4 and 6.0×10^4 cells/ml, respectively. They were incubated at 37° C. in humidified atmosphere of 5% CO2 and 95% air for 72 hours. The cytotoxic activity was determined colorimetrically at 540 nm after staining viable cells with neutral red. […] Inhibitory effects of BU-3292T component A on macromolecule (DNA, RNA and protein) synthesis were determined in vitro. Cultured L1210 murine leukemia cells (5×10^5 cells/ml) were incubated with test materials at 37° C. for 15 minutes and then further incubated for 60 minutes after the addition of labelled precursor, ^3 H-thymidine, ^14 C-uridine or ^3 H-leucine, into the cultured mixtures. After washing with chilled 5% trichloroacetic acid solution, the radioactivity incorporated into the acid-insoluble fraction of the tumor cells was determined in a liquid scintillation counter. […] In vivo antitumor activities of BU-3292T components A and B were tested in tumor-bearing female CDF mice. After the intraperitoneal implantation of diluted ascitic fluid with 1.0 ×10^6 lymphocytic leukemia P388 cells into the mice, test compounds were administered intraperitoneally once a day on days 1, 2 and 3 (QD×3).
# [19] = test system: B16-F10 (murine melanoma) cells; experiment: In vitro cytotoxicity, neutral red staining; format: cell-based; conditions: B16-F10; 72 hours
# Procedure: as §2
# [20] = test system: Moser (human colorectal carcinoma) cells; experiment: In vitro cytotoxicity, neutral red staining; format: cell-based; conditions: 72 hours
# Procedure: as §2
# [21] = test system: DNA synthesis in L1210 leukemia cells; experiment: Inhibition of macromolecule synthesis, 3H-thymidine incorporation; format: cell-based, murine
# Procedure: BU-3292T components A and B were tested for in vitro cytotoxicity against murine and human tumor cells and for in vivo antitumor activity in mice. Actinomycin D was used as a reference compound in both in vitro and in vivo experiments. B16-F10 (murine melanoma) and Moser (human colorectal carcinoma) cells were grown to the logarithmic phase in enriched Eagle minimum essential medium (MEM) supplemented with fetal calf serum (FCS, 10%) and kanamycin (60 mcg/ml), harvested and inoculated into wells of a 96-well microtiter plate with test materials at the concentrations of 3.0×10^4 and 6.0×10^4 cells/ml, respectively. They were incubated at 37° C. in humidified atmosphere of 5% CO2 and 95% air for 72 hours. The cytotoxic activity was determined colorimetrically at 540 nm after staining viable cells with neutral red. […] Inhibitory effects of BU-3292T component A on macromolecule (DNA, RNA and protein) synthesis were determined in vitro. […] After washing with chilled 5% trichloroacetic acid solution, the radioactivity incorporated into the acid-insoluble fraction of the tumor cells was determined in a liquid scintillation counter. […]
# [22] = Body weight change in P388-bearing mice; conditions: QD × 3, ip
# Procedure: as §2
# [23] = test system: Clostridium perfringens A9635; format: cell-based; conditions: GAM agar
# [24] = test system: Protein synthesis in L1210 leukemia cells; experiment: Inhibition of macromolecule synthesis, 3H-leucine incorporation; format: cell-based, murine; conditions: L1210 leukemia cells; 3H-leucine
# Procedure: as §2
# [25] = test system: RNA synthesis in L1210 leukemia cells; experiment: Inhibition of macromolecule synthesis, 14C-uridine incorporation; format: cell-based, murine; conditions: L1210 leukemia cells; 14C-uridine
# Procedure: as §2
smiles,measurement,setting,value
"Cc1c2oc3c(C)ccc(C(=O)N[C@@H]4C(=O)N[C@H](C(C)C)C(=O)N5CCC[C@H]5C(=O)N(C)CC(=O)N(C)[C@@H](C(C)C)C(=O)O[C@@H]4C)c3nc-2c(C(=O)N[C@@H]2C(=O)N[C@H](C(C)C)C(=O)N3CCC[C@H]3C(=O)N(C)CC(=O)N(C)[C@@H](C(C)C)C(=O)O[C@@H]2C)c(N)c1=O [Actinomycin D, reference compound] (I: T[dV]P[Sar][NMeV] / II: T[dV]P[Sar][NMeV]; ester I:1-I:C, II:1-II:C; linker I:N-II:N via Actinocin(9to1))",MIC,[1],> 100 µg/mL
same,MIC,[2],0.2 µg/mL
same,MIC,[3],> 100 µg/mL
same,MIC,[4],> 100 µg/mL
same,MIC,[5],25 µg/mL
same,MIC,[6],25 µg/mL
same,MIC,[7],> 100 µg/mL
same,MIC,[8],0.4 µg/mL
same,MIC,Proteus vulgalis A9436,> 100 µg/mL
same,MIC,[9],6.3 µg/mL
same,MIC,"Mucor spinosus IFO 5317; Mucor spinosus IFO 5317, Sabouraud dextrose agar",> 100 µg/mL
same,MIC,Mucor spinosus IFO 5317; in vitro against Mucor spinosus IF05317,> 100 µg/mL
same,MIC,[10],0.1 µg/mL
same,MIC,[11],0.4 µg/mL
same,MIC,Micrococcus luteus 1001,0.2 µg/mL
same,MIC,[12],0.4 µg/mL
same,MIC,[13],> 100 µg/mL
same,MIC,[14],0.2 µg/mL
same,MIC,[15],> 100 µg/mL
same,MIC,[16],100 µg/mL
same,MIC,[17],1.6 µg/mL
same,MIC,Proteus mirabilis A9554,> 100 µg/mL
same,MIC,Escherichia coli NIHJ,> 100 µg/mL
same,MST (Median survival time),[18]; 0.001 mg/kg/day,11.0 days
same,T/C,[18]; 0.001 mg/kg/day,110%
same,MST (Median survival time),[18]; 0.003 mg/kg/day,13.5 days
same,T/C,[18]; 0.003 mg/kg/day,135%
same,MST (Median survival time),[18]; 0.01 mg/kg/day,14.0 days
same,T/C,[18]; 0.01 mg/kg/day,140%
same,MST (Median survival time),[18]; 0.03 mg/kg/day,15.0 days
same,T/C,[18]; 0.03 mg/kg/day,150%
same,MST (Median survival time),[18]; 0.1 mg/kg/day,16.0 days
same,T/C,[18]; 0.1 mg/kg/day,160%
same,MST (Median survival time),[18]; 0.3 mg/kg/day,7.0 days
same,T/C,[18]; 0.3 mg/kg/day,70%
same,IC50,[19],0.002 µg/mL
same,IC50,[20],0.9 µg/mL
same,IC50 DNA,[21],8.1 µg/mL
same,Body weight change on day 4,[22]; 0.001 mg/kg/day,+1.3 g
same,Body weight change on day 4,[22]; 0.01 mg/kg/day,+1.3 g
same,Body weight change on day 4,[22]; 0.03 mg/kg/day,+0.5 g
same,Body weight change on day 4,[22]; 0.1 mg/kg/day,-2.0 g
same,Body weight change on day 4,[22]; 0.3 mg/kg/day,-3.5 g
same,MIC,[23],6.3 µg/mL
same,IC50 Protein,[24],> 100 µg/mL
same,IC50 RNA,[25],0.17 µg/mL
